Test results from patent publication EP0157637A2, “Heterocyclic compounds” (THE WELLCOME FOUNDATION LIMITED, priority 1984, dated 1985).
Where two headings read alike, the source gives them in different places.

Legend:
[1] = tested on: rats; experiment: maximal electroshock test (MES), anticonvulsant activity in rats; type: in vivo; conditions: for ED50: Rattus norvegicus
Method: The anticonvulsant activity of certain compounds of the present invention was determined by a standard maximal electroshock test (MES); that described by L.A. Woodbury and V.D. Davenport, Arch. Int. Pharmacodyn., 1952, 92, 97.

[2] = LD50 in the rat; conditions: in vivo, po, approximate
[3] = tested on: Eimeria tenella; experiment: in vivo anticoccidial activity against Eimeria tenella; conditions: Concentration 400 ppm, cleared/total
Method: The in vivo activity of two compounds of the present invention and a compound disclosed in US Patent No. 4189485 were determined against Eimeria tenella by the method disclosed in European Patent No. 0021293.

[4] = ip, rats, i.p., read-out: MES ED50 (mg/kg) i.p.
[5] = po, rats, p.o., read-out: MES ED50 (mg/kg) p.o.

SMILES | ED50 [1, 4] [mg/kg] | ED50 [1, 5] [mg/kg] | other results
Fc1cccc(F)c1Cn1cnc2c(NC3CC3)ncnc21 [Compound 12, 6-cyclopropylamino-9-(2,6-difluorobenzyl)-9H-purine] | 4 | 12.5 | 
O=C1NC(=O)C(c2ccccc2)(c2ccccc2)N1 [phenytoin (Dilantin), 5,5-diphenylhydantoin, reference compound] | 10 ± 2 | 20 ± 3 | 
CNc1ncnc2c1ncn2Cc1cc(F)ccc1F [Compound 15, 9-(2,5-Difluorobenzyl)-6-methylamino-9H-purine] | 4 ± 0.6 | 7 ± 1 | 
CCN(CC)c1ncnc2c1ncn2Cc1ccccc1F [Compound 10, 6-diethylamino-9-(2-fluorobenzyl)-9H-purine] | 4.2 ± 0.5 | 5.9 ± 0.6 | 
Nc1ncnc2c1ncn2Cc1ccccc1F [Compound 16, 6-Amino-9-(2-fluorobenzyl)-9H-purine] | 2.4 ± 0.6 | 2.2 ± 0.4 | 
CNc1ncnc2c1ncn2Cc1c(F)cccc1F [Compound 13] | 2 |  | 
COCNc1ncnc2c1ncn2Cc1ccccc1F [Compound 31, 9-(2-Fluorobenzyl)-6-methoxymethylamino-9H-purine] |  |  | MES, % at 6.25mg/kg ([1]; rats, 6.25mg/kg, printed in the i.p. column in place of an ED50): (17% at 6.25mg/kg)
COCN(C)c1ncnc2c1ncn2Cc1ccccc1F [Compound 30, 9-(2-Fluorobenzyl)-6-(N-methoxymethyl-N-methylamino)-9H-purine] | 5 |  | 
CCN(C)c1ncnc2c1ncn2Cc1ccccc1F [Compound 8] | 2.9 ± 0.3 | 6 ± 0.5 | 
Fc1ccccc1Cn1cnc2c(NCC3CC3)ncnc21 [Compound 6, 6-cyclopropylmethylamino-9-(2-fluorobenzyl)-9H-purine] | 4.3 ± 0.9 | 6.3 ± 1 | 
Nc1ncnc2c1ncn2Cc1cc(F)ccc1F [Compound 28, 6-amino-9-(2,5-difluorobenzyl)-9H-purine] | 5 |  | 
Fc1ccccc1Cn1cnc2c(NC3CC3)ncnc21 [Compound 3, 6-cyclopropylamino-9-(2-fluorobenzyl)-9H-purine] | 5 ± 0.4 | 7.8 ± 0.8 | 
CCCNc1ncnc2c1ncn2Cc1ccccc1F [Compound 9, 9-(2-fluorobenzyl)-6-propylamino-9H-purine] | 5.1 ± 0.5 | 4.6 ± 1 | 
CN(c1ncnc2c1ncn2Cc1ccccc1F)C1CC1 [Compound 7, 9-(2-fluorobenzyl)-6-(N-methylcyclopropylamino)-9H-purine] | 6.8 ± 0.8 |  | 
Nc1ncnc2c1ncn2Cc1c(F)cccc1F [Compound 27, 6-amino-9-(2,6-difluorobenzyl)-9H-purine] | 9 |  | 
CC(C)Nc1ncnc2c1ncn2Cc1ccccc1F [Compound 5, 9-(2-fluorobenzyl)-6-isopropylamino-9H-purine] | 5.8 ± 0.6 |  | 
CNc1ncnc2c1ncn2Cc1ccccc1F [Compound 1, 9-(2-Fluorobenzyl)-6-methylamino-9H-purine] |  |  | LD50 [2]: ~1000 mg/kg; E.tenella cleared [3]: 2/5; ED50 ([1]; ip, read-out: MES ED50 (mg/kg) i.p.): 1.7 ± 0.4 mg/kg; ED50 ([1]; po, read-out: MES ED50 (mg/kg) p.o.): 2.5 ± 0.4 mg/kg
CCNc1ncnc2c1ncn2Cc1ccccc1F [Compound 4, 6-ethylamino-9-(2-fluorobenzyl)-9H-purine] | 4.9 ± 0.5 |  | 
CN(C)c1ncnc2c1ncn2Cc1c(F)cccc1F [Compound 14, ^g-(2,6-difluorobenzyl)-6-dimethylamino-9H-purine] | 2.2 ± 0.2 | 3.8 ± 0.6 | 
Fc1ccccc1Cn1cnc2c(NC3CCCC3)ncnc21 [Compound 11, 6-cyclopentylamino-9-(2-fluorobenzyl)-9H-purine] | 8 ± 1 |  | 
CN(C)c1ncnc2c1ncn2Cc1ccccc1F [Compound 2, 6-dimethylamino-9-(2-fluorobenzyl)-9H-purine] | 8.8 ± 1.7 |  | E.tenella cleared [3]: 0/5
OCNc1ncnc2c1ncn2Cc1ccccc1F [Compound 29, 9-(2-Fluorobenzyl)-6-hydroxymethylamino-9H-purine] | 4 |  | 
